EP0326331B1, “Substituted quinolines and cinnolines” (Dow AgroSciences LLC, priority 1988, dated 1989)
Read-outs that look alike come from different tables or passages of the source.

Key:
Format in all cases: in vivo
[1] = test system: Erysiphe graminis tritici (powdery mildew); assay: Test 1 greenhouse foliar spray screen, powdery mildew on wheat; settings: disease control rating, foliar spray on wheat, 400 ppm (+++ at 100 ppm)
[2] = test system: Pyricularia oryzae (rice blast); assay: whole plant or invertebrate; settings: disease control rating, foliar spray on rice, 400 ppm (+++ at 100 ppm)
[3] = test system: Puccinia recondita tritici (leaf rust); assay: Test 1 greenhouse foliar spray screen, leaf rust on wheat; settings: disease control rating, foliar spray on wheat, 400 ppm (+++ at 100 ppm)
[4] = test system: Botrytis cinerea (gray mold); assay: Test 1 greenhouse foliar spray screen, gray mold on grape berries; settings: disease control rating, spray on grape berries, 400 ppm (+++ at 100 ppm)
[5] = test system: Pseudoperonospora cubensis (downy mildew); assay: Test 1 greenhouse foliar spray screen, downy mildew on squash; settings: disease control rating, foliar spray on squash, 400 ppm (+++ at 100 ppm)
[6] = test system: Cercospora beticola (leaf spot); assay: Test 1 greenhouse foliar spray screen, leaf spot on sugar beet; settings: disease control rating, foliar spray on sugar beet, 400 ppm (+++ at 100 ppm)
[7] = test system: Venturia inaequalis (apple scab); assay: Test 1 greenhouse foliar spray screen, apple scab on apple seedling; settings: disease control rating, foliar spray on apple seedling, 400 ppm (+++ at 100 ppm)
[8] = test system: Septoria tritici (leaf blotch); assay: Test 1 greenhouse foliar spray screen, leaf blotch on wheat; settings: disease control rating, foliar spray on wheat, 400 ppm (+++ at 100 ppm)
[9] = test system: southern armyworm (Spodopetra eridania Cramer); assay: Mite/insect screen, SAW; settings: percent mortality; for mortality at 200 ppm / mortality at 400 ppm: Spodoptera eridania, read-out: SAW RESULTS %; for mortality at 400 ppm: SM & MA RATE 400 PPM
How it was run: (§1)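 Formulation: acetone/alcohol 50:50 + sulfonate/nonionic emulsifiers, water-diluted to indicated concs. Spray both leaf surfaces to runoff, 10 psi; dry 1 h. Armyworm: 2 excised uninfested leaves in Petri dish. Score % mortality after standard exposure.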

[10] = test system: Twospotted spider mites (Tetranychus urticae Koch); assay: Mite/insect screen, SM; settings: for mortality at 200 ppm / mortality at 400 ppm: Tetranychus urticae, read-out: SM RESULTS %; for mortality at 200 ppm / mortality at 400 ppm / SM RESULTS %: percent mortality; for mortality at 400 ppm: SM & MA RATE 400 PPM
How it was run: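 Compounds dissolved in 50:50 acetone/alcohol containing sulfonate/nonionic emulsifier blends, then diluted with water to the indicated concentrations. Leaves sprayed on both surfaces to runoff at 10 psi and dried one hour. Percent mortality scored after standard exposure periods.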

[11] = test system: melon aphids (Aphis gossypii Glover); assay: Mite/insect screen, MA; settings: percent mortality; for mortality at 200 ppm / mortality at 400 ppm: Aphis gossypii, read-out: MA RESULTS %; for mortality at 400 ppm: SM & MA RATE 400 PPM
How it was run: as §1

corn rootworm = assay: Mite/insect screen, CRW; settings: percent mortality; for mortality at 12 ppm / mortality at 24 ppm: read-out: CRW RESULTS %; for mortality at 24 ppm: CRW RATE 24.00 PPM
How it was run: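 Percent mortality is evaluated once the standard exposure period ends. Test material is applied as a water dilution of an acetone/alcohol (50:50) stock carrying two sulfonate/nonionic emulsifiers (23 and 13 g per liter).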

[12] = foliar, rate 200 ppm, foliar spray on squash

Compound | POWD MDEW [1] | RICE BLAST [2] | LEAF RUST [3] | GRAY MOLD [4] | DOWN MDEW [5] | LEAF SPOT [6] | APPL SCAB [7] | LEAF BLOT [8] | mortality at 200 ppm ([9]; SAW, SM & MA RATE 200 PPM) [%] | mortality at 200 ppm ([10]; SAW, SM & MA RATE 200 PPM) [%] | mortality at 200 ppm ([11]; SAW, SM & MA RATE 200 PPM) [%] | mortality at 12 ppm (corn rootworm; CRW RATE 12.00 PPM) [%] | mortality at 400 ppm ([9]; SAW) [%] | mortality at 400 ppm ([10]; SAW) [%] | mortality at 400 ppm ([11]; SAW) [%] | mortality at 24 ppm (corn rootworm) [%] | SM RESULTS % ([10]; SAW, SM & MA RATE 200 PPM) [%] | MA RESULTS % ([11]; SAW, SM & MA RATE 200 PPM) [%] | further results
Fc1cc(F)c2nccc(NCCc3ccccc3)c2c1 [Example 7, 6,8-difluoro-N-(2-phenylethyl)-4-quinolinamine] | + (20-89% control at 400 ppm) | + (20-89% control at 400 ppm) | +++ (90-100% control at 100 ppm) | - (0-19% control at 400 ppm) | +++ (90-100% control at 100 ppm) | - (0-19% control at 400 ppm) | - (0-19% control at 400 ppm) | +++ (90-100% control at 100 ppm) | 0 | 0 | 0 | 0 | – | – | – | – | – | – | –
Fc1ccc2c(NCCc3ccccc3)ccnc2c1 [Example 8, 7-fluoro-N-(2-phenylethyl)-4-quinolinamine] | + (20-89% control at 400 ppm) | ++ (90-100% control at 400 ppm) | + (20-89% control at 400 ppm) | - (0-19% control at 400 ppm) | +++ (90-100% control at 100 ppm) | +++ (90-100% control at 100 ppm) | - (0-19% control at 400 ppm) | + (20-89% control at 400 ppm) | 100 | 0 | 0 | 0 | – | – | – | – | – | – | –
Fc1ccc2nccc(NCCc3ccccc3)c2c1 [Example 9, 6-fluoro-N-(2-phenylethyl)-4-quinolinamine] | + (20-89% control at 400 ppm) | + (20-89% control at 400 ppm) | + (20-89% control at 400 ppm) | - (0-19% control at 400 ppm) | +++ (90-100% control at 100 ppm) | - (0-19% control at 400 ppm) | - (0-19% control at 400 ppm) | - (0-19% control at 400 ppm) | 0 | 0 | 0 | 0 | – | – | – | – | – | – | –
Fc1cccc2c(NCCc3ccc(I)cc3)ccnc12 [Example 11, 8-fluoro-N-[2-(4-iodophenyl)ethyl]-4-quinolinamine] | - (0-19% control at 400 ppm) | ++ (90-100% control at 400 ppm) | +++ (90-100% control at 100 ppm) | - (0-19% control at 400 ppm) | ++ (90-100% control at 400 ppm) | +++ (90-100% control at 100 ppm) | - (0-19% control at 400 ppm) | - (0-19% control at 400 ppm) | 80 | 0 | 0 | 0 | 100 | 0 | 0 | 60 | – | – | activity as miticides ([10]; summary statement in the description): particularly excellent activity
Fc1cc(F)c2nccc(NCCc3ccc(Br)cc3)c2c1 [Example 12, N-[2-(4-bromophenyl)ethyl]-6,8-difluoro-4-quinolinamine] | + (20-89% control at 400 ppm) | ++ (90-100% control at 400 ppm) | +++ (90-100% control at 100 ppm) | - (0-19% control at 400 ppm) | ++ (90-100% control at 400 ppm) | +++ (90-100% control at 100 ppm) | - (0-19% control at 400 ppm) | ++ (90-100% control at 400 ppm) | 0 | 0 | 0 | 0 | 100 | 0 | 0 | 40 | – | – | –
FC(F)(F)c1cccc2c(NCCc3ccc(Br)cc3)ccnc12 [Example 13, N-[2-(4-bromophenyl)ethyl]-8-(trifluoromethyl)-4-quinolinamine] | - (0-19% control at 400 ppm) | ++ (90-100% control at 400 ppm) | ++ (90-100% control at 400 ppm) | - (0-19% control at 400 ppm) | ++ (90-100% control at 400 ppm) | - (0-19% control at 400 ppm) | - (0-19% control at 400 ppm) | - (0-19% control at 400 ppm) | 0 | 0 | 0 | 0 | 0 | 0 | 0 | 0 | – | – | –
Cc1ccc(CCNc2ccnc3c(F)cccc23)cc1 [Example 71, 8-fluoro-N-[2-(4-methylphenyl)ethyl]-4-quinolinamine] | + (20-89% control at 400 ppm) | + (20-89% control at 400 ppm) | +++ (90-100% control at 100 ppm) | - (0-19% control at 400 ppm) | +++ (90-100% control at 100 ppm) | +++ (90-100% control at 100 ppm) | - (0-19% control at 400 ppm) | + (20-89% control at 400 ppm) | 0 | 0 | 0 | – | – | – | – | – | 0 | 0 | SAW RESULTS % ([9]; SAW, SM & MA RATE 200 PPM): 0%
Fc1cccc2c(NCCc3cccc(Cl)c3)ccnc12 [Example 74, N-[2-(3-chlorophenyl)ethyl]-8-fluoro-4-quinolinamine] | + (20-89% control at 400 ppm) | + (20-89% control at 400 ppm) | +++ (90-100% control at 100 ppm) | - (0-19% control at 400 ppm) | +++ (90-100% control at 100 ppm) | +++ (90-100% control at 100 ppm) | - (0-19% control at 400 ppm) | - (0-19% control at 400 ppm) | – | 0 | 0 | 0 | – | – | – | – | 0 | 0 | CRW RESULTS % (corn rootworm; CRW RATE 12.00 PPM): 0%
CC(CNc1ccnc2c(F)cccc12)c1ccc(Cl)cc1 (stereo not drawn) [Example 79, N-[2-(4-chlorophenyl)propyl]-8-fluoro-4-quinolinamine] | + (20-89% control at 400 ppm) | ++ (90-100% control at 400 ppm) | ++ (90-100% control at 400 ppm) | - (0-19% control at 400 ppm) | +++ (90-100% control at 100 ppm) | +++ (90-100% control at 100 ppm) | - (0-19% control at 400 ppm) | + (20-89% control at 400 ppm) | – | 0 | 0 | 0 | – | – | – | – | 0 | 0 | CRW RESULTS % (corn rootworm; CRW RATE 12.00 PPM): 0%
c1ccc(CCNc2cc(NCCc3ccccc3)c3ccccc3n2)cc1 [Example 181, N,N'-bis(2-phenylethyl)-2,4-quinolinediamine] | + (20-89% control at 400 ppm) | + (20-89% control at 400 ppm) | + (20-89% control at 400 ppm) | - (0-19% control at 400 ppm) | +++ (90-100% control at 100 ppm) | – | - (0-19% control at 400 ppm) | - (0-19% control at 400 ppm) | – | – | – | – | – | – | – | – | – | – | mortality at 200 ppm [9, 12]: 0%; mortality at 200 ppm [10, 12]: 0%; mortality at 200 ppm [11, 12]: 0%; mortality at 12 ppm (corn rootworm; CRW rate 12.00 ppm): 0%
